Entries after “also recorded” stand apart in the source; their conditions may differ. Each block holds one molecule with its values, some of them ahead of it.
Experiments:
[1] = cited from earlier work; for Stability of the polymorph: ambient conditions / air
[2] = Polymorph obtained on crystallization of 3-ABSA from water with or without AMMP substrate (XRPD)
[3] = Polymorph obtained on crystallization of AAP from ethanol with or without crystalline substrate (DSC, XRPD); assay type: physicochemical; conditions: supersaturation 0.49 with respect to Form I; for Polymorphic form of AAP crystallized in the presence of substrate: substrate seeds added, DSC/XRPD, label = substrate
Excerpt: Such an observation implies that for both polymorphs their nucleation rate constants follow the relationship kI>kII. It was hypothesized crystalline substrates would be able to selectively crystallize Form II if they fit the following two core criteria: 1) the unit cell parameters of the substrate were substantially similar to that of Form II and 2) the molecular functionality of the compound acting as the substrate is similar to that of AAP. By constraining the crystallographic properties of the substrate in this way, a three dimensional lattice match with Form II was targeted. Furthermore, selection of compounds with similar functionality as AAP was selected to stabilize the formation of a nucleus through favorable interactions such as hydrogen bonds.
The crystallizations of AAP from ethanol were then repeated in the presence of 50 mg of 4-APAA seeds, added after the desired supersaturation had been achieved. Once crystallization occurred, the crystals were filtered immediately and analyzed by DSC and x-ray powder diffraction. […] Furthermore no melting endotherm for Form I which is often observed in DSC traces of apparently pure Form II.
A plot of dimensionless potential energy (V/V0) as a function of orientation angle (θ) for the interacting (001) faces of Form II acetaminophen and graphite was prepared. The EpiCalc calculation was performed using the following lattice values for the (001) faces of Form II acetaminophen and graphite: (001) Form II acetaminophen: a=17.1657 Å, b=11.7773 and Å and β=90° (001); graphite: a=b=2.456 Å and α=90°. The acetaminophen overlayer dimensions were 25×25 cells and the orientation angle range tested was 180° with a step size of 0.25°.

[4] = Nucleation induction time of AAP from ethanol in the presence of crystalline substrates; assay type: physicochemical; conditions: AAP Form I from ethanol; for Average induction times, τ: σ = 0.36, 15° C.; for Change in τ compared to bulk nucleation: σ = 0.36
Description: 1.5 mL aliquots of the stock solution were then syringe filtered into HPLC vials through a 0.2 μm nylon membrane in order to remove solid impurities. Crystallisations were carried out using a RS10 Clarity Solubility Station with non-intrusive infrared transmission probes and Integrity Client Software. The vials were initially held for 30 mins at 40° C. to ensure complete dissolution of AAP had occurred. After which they were cooled to 15° C. at a rate of 5° C./min and held at this temperature over a 24 hour period whilst the turbidity of the solution was monitored. Over the course of the experiments the stirring speed in each vial was held constant at 700 rpm. For those crystallizations requiring substrate, 3 mg was used. […] For each system studied 50 crystallisations were carried out to ensure a sufficient number of data points were obtained for statistical analysis.
The effectiveness of the five chosen substrates at promoting nucleation of AAP was measured by determining their effect on the nucleation induction time, τ. […] X-ray powder diffraction was used to confirm that it was the nucleation induction time of Form I being measured in all cases with any additional peaks in the diffraction patterns correspond to the substrates.
The percentage of vials crystallized as a function of time were plotted to give cumulative probability distributions of nucleation induction time for each system tested. […] It was assumed that nucleation follows a Poisson distribution (Equation 1). λ is the expected number of occurrences in the interval and k is the exact number of occurrences. If k=0 and […], then the probability of observing no nucleation events within a time, t, is given by equation 2 which is consistent with first order kinetic expressions previously used for studying nucleation events.
Using linear regression, plotting ln(P) against t (FIG. 10), the average induction times and associated errors were calculated (Table 3).

[5] = 3 mg substrate, 700 rpm, 50 crystallisations, label = substrate

SMILES: Nc1cccc(S(=O)(=O)O)c1 [3-ABSA Form II, 3-aminobenzenesulfonic acid]
Stability of the polymorph [1]: thermodynamically most stable form under ambient conditions

SMILES: Nc1cccc(S(=O)(=O)O)c1 [3-ABSA, 3-aminobenzenesulfonic acid]
Polymorphic form of 3-ABSA crystallized without substrate ([2]; aqueous solution, no substrate): only Form II was obtained; also recorded: Form II had crystallized

SMILES: CC(=O)Nc1ccc(O)cc1 [AAP Form II, acetaminophen]
Time until Form I crystallizes via solvent mediated phase transformation when seeding with Form II ([1]; in solution, seeded with Form II): ≤ 15 min | Temperature of solid state transformation to Form I ([1]; solid state): Above 60 °C

SMILES: CC(=O)Nc1ccc(O)cc1 [AAP Form III, acetaminophen]
Stability of the polymorph [1]: highly unstable in air

SMILES: COc1cc(C)nc(N)n1 [AMMP]
Polymorphic form of 3-ABSA crystallized in the presence of substrate ([2]; aqueous solution saturated at 50° C., cooled to 10° C., 50 mg AMMP seeds, label = substrate): Form I crystallized; also recorded: a mixture of Forms I and II was obtained

SMILES: [Cl-].[Na+] [Sodium Chloride, sodium chloride]
Polymorphic form of AAP crystallized in the presence of substrate [3]: Form I

SMILES: O.OC[C@H]1O[C@@H](O[C@H]2[C@H](O)[C@@H](O)[C@@H](O)O[C@@H]2CO)[C@H](O)[C@@H](O)[C@H]1O [α-LMH, α-lactose monohydrate]
Average induction times, τ [4, 5]: 410 ± 11 min | Change in τ compared to bulk nucleation ([4]; label = substrate): largest reduction in τ | Polymorphic form of AAP crystallized in the presence of substrate [3]: Form I

Further lines, with some results ahead:

Polymorphic form of AAP crystallized in the presence of substrate [3]: Form II crystallized
SMILES: Nc1ccc(CC(=O)O)cc1 [4-APAA, 4-aminophenylacetic acid]

Average induction times, τ ([4]; bulk nucleation, no substrate): 1930 ± 85 min
SMILES: CC(=O)Nc1ccc(O)cc1 [AAP Form I, acetaminophen, reference compound]
Stability of the polymorph [1]: thermodynamically stable phase under ambient conditions

Polymorphic form of AAP crystallized without substrate [3]: only Form I was obtained
SMILES: CC(=O)Nc1ccc(O)cc1 [AAP, acetaminophen, reference compound]

Average induction times, τ [4, 5]: 390 ± 8 min | Change in τ compared to bulk nucleation ([4]; label = substrate): largest reduction in τ | Polymorphic form of AAP crystallized in the presence of substrate [3]: Form I
SMILES: OC[C@@H](O)[C@@H](O)[C@H](O)[C@H](O)CO [D-mannitol]

Average induction times, τ [4, 5]: 1910 ± 95 min | Change in τ compared to bulk nucleation ([4]; label = substrate): no measureable decrease in τ
SMILES: N[C@@H](Cc1c[nH]cn1)C(=O)O [L-histidine]

— patent US9822467B2, “Methods and systems relating to the selection of substrates comprising crystalline templates for the controlled crystallization of molecular species” (Massachusetts Institute of Technology, priority 2011, dated 2017)
